Key:
Klenow = Klenow (Escherichia coli, UniProt P00582); assay: Charged nucleobase (aminoallyl-dUTP) as polymerase substrate; assay type: biochemical; settings: dATP, dCTP, dGTP plus AA-dUTP
Method: (§1) Arrows indicate the extension products.
(§2) Charged Nucleobase as a Polymerase Substrate. […] Aminoallyl-dUTP was tested with 4 different polymerases.

HIV-RT = HIV-RT (Human immunodeficiency virus type 1 group M subtype B, UniProt P03366); assay: as above; assay type: biochemical; settings: dATP, dCTP, dGTP plus AA-dUTP
Method: as §1, §2

Taq = Taq (Thermus aquaticus, UniProt P19821); assay: as above; assay type: biochemical; settings: dATP, dCTP, dGTP plus AA-dUTP
Method: as §1, §2

T7 Sequenase 2.0 = T7 Sequenase 2.0 (Escherichia phage T7, UniProt P00581, DEL118-145); settings: dATP, dCTP, dGTP plus AA-dUTP
Description: Samples contain dATP, dCTP, dGTP and either dUTP (first lane of each enzyme) or AA-dUTP (second lane each enzyme). Arrows indicate the extension products.

[1] = Capillary electrophoresis of unlabeled nucleotides with Mg++; assay type: physicochemical
Method: FIG. 14 illustrates the effect of Mg^++ on electrophoretic mobility of unlabeled nucleotides.
Electrophoresis Results. A γ-dNTP (FIG. 13A) with the charge configuration N(0) F(+2) was synthesized and its electrophoretic mobility examined in an agarose gel as a function of Mg^++ concentration (FIG. 13B). As expected (FIG. 12B), its mobility changed from negative to positive with increasing Mg^++, passing through zero at about 3 mM Mg^++. A direct comparison with the calculation (FIG. 12B) is not possible because, while the gels contained the indicated Mg^++ concentrations, the samples (20 μL) loaded in each lane contained 10 mM Mg^++. The importance of attaching a (+2) charge to the γ-label (FIG. 13A) with respect to obtaining a bipolar switch mode (neg to pos) is illustrated by a capillary electrophoresis experiment with unlabeled dTDP and dTTP (FIG. 14). […] It is clear that additional positive charge can be added to the these nucleotides if one desires a negative to positive charge switch. This is what was done with the γ-dNTP of FIG. 13.

T7 polymerase exo- = molecular target: T1, T7 polymerase exo- (Escherichia phage T7, UniProt P00581, D5A/E7A); assay: Steady-state kinetics, Km determination for dTTP; assay type: biochemical; settings: Lineweaver-Burk plot; 5 sec at 20° C.
T1 construct: made in house; host or cells: E. coli TOP 10

[2] = Photodegradation and single molecule detection calculation; settings: 60 photons, 0.45% detection efficiency, 13,333 excitations
HIV-1 RT = HIV-1 RT (Human immunodeficiency virus type 1 group M subtype B, UniProt P03366); settings: 50 μM dATP, dCTP, dGTP; 37° C. for 30 min
Method: FIG. 6 illustrates the utilization of different γ-dNTPs by T7 Sequenase 2.0 and HIV polymerases. Samples contain 50 μM dATP, dCTP, dGTP and either (a) dUTP; (b) γ-dUTP-BodipyTR; (c) γ-dUTP-Fluorescein; or a control (d) omitting dUTP and its analogs. Incubation was at 37° C. for 30 min.
18 commercially-available polymerases were screened for the utilization of γ-dUTP-BodipyTR.

Chain of Taq (P19821 whole entry): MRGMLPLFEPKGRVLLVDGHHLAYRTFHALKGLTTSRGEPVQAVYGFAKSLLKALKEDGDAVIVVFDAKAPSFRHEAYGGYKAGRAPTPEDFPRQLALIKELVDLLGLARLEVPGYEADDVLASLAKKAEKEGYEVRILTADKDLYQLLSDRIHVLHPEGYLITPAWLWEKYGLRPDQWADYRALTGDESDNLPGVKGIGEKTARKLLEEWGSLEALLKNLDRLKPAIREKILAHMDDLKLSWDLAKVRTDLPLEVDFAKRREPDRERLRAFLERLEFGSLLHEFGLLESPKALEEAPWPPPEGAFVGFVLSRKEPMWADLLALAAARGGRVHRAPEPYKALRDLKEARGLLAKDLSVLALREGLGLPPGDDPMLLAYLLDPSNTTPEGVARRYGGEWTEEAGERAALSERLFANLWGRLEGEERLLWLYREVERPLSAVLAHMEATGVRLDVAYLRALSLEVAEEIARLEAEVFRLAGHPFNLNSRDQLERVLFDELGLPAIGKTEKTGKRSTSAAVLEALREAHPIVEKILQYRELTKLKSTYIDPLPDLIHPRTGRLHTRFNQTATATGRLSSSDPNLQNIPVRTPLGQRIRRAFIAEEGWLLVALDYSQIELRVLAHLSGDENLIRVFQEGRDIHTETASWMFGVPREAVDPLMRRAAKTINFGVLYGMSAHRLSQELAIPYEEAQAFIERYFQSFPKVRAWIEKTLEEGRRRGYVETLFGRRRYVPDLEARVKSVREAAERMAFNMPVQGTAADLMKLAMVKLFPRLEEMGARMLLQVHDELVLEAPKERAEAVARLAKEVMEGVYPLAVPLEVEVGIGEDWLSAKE

Compound: NC/C=C/c1cn([C@H]2C[C@H](O)[C@@H](COP(=O)(O)OP(=O)(O)OP(=O)(O)O)O2)c(=O)[nH]c1=O [Aminoallyl-dUTP]
- extension product with AA-dUTP (Klenow): stopped at the dUTP incorporation sites
- extension product with AA-dUTP (HIV-RT): produced full-length product
- extension product with AA-dUTP (Taq): stopped at the dUTP incorporation sites
- extension product with AA-dUTP (T7 Sequenase 2.0): produced full-length product

Compound: Cc1cn([C@H]2C[C@H](O)[C@@H](COP(=O)(O)OP(=O)(O)O)O2)c(=O)[nH]c1=O [dTDP]
- charge in presence of Mg++ [1]: remained in negative territory

Compound: Cc1cn([C@H]2C[C@H](O)[C@@H](COP(=O)(O)OP(=O)(O)OP(=O)(O)O)O2)c(=O)[nH]c1=O [dTTP]
- Km (T7 polymerase exo-): 13 µM
- charge in presence of Mg++ [1]: remained in negative territory

Compound: CN(C)c1ccc2c(-c3ccccc3C(=O)[O-])c3ccc(N(C)C)cc3[o+]c2c1 [TMR, tetramethylrhodamine]
- molecules escaping detection due to photodegradation [2]: 0.44%

Compound: O=c1ccn([C@H]2C[C@H](O)[C@@H](COP(=O)(O)OP(=O)(O)OP(=O)(O)O)O2)c(=O)[nH]1 [dUTP]
- incorporation of γ-dUTP analogs / dUTP (FIG. 6) (HIV-1 RT): synthesized full-length product

From patent US20040259082A1
